In ChEMBL document CHEMBL1201862, “PubChem BioAssay data set” (2004):
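Growth conditions: 96-well plates. Treatment: test compound, 48 hours, 5 concentrations. Analysis: linear interpolation between bracketing concentrations; unreached endpoints set to highest concentration. GI50 marks 50% less growth.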 Active and inactive are the calls of the source. Cut-off read from the data, not from the text of the source: active = GI50 up to about 1.1 µM and inactive = higher.

Tests used:
Test in all cases: DTP human tumour cell line panel, 48 h
[1] = test system: A498
[2] = test system: CCRF-CEM
[3] = test system: HCC 2998
[4] = test system: HOP-62
[5] = test system: K562
[6] = test system: KM12
[7] = test system: LOX IMVI
[8] = test system: MOLT-4
[9] = test system: OVCAR-8
[10] = test system: RPMI-8226
[11] = test system: RXF 393
[12] = test system: SF-268
[13] = test system: SK-OV-3
[14] = test system: SN12C
[15] = test system: SNB-75
[16] = test system: UACC-257
[17] = test system: MDA-MB-231
[18] = test system: NCI/ADR-RES
[19] = test system: PC-3

Compound	GI50 [1]	GI50 [2]	GI50 [3]	GI50 [4]	GI50 [5]	GI50 [6]	GI50 [7]	GI50 [8]	GI50 [9]	GI50 [10]	GI50 [11]	GI50 [12]	GI50 [13]	GI50 [14]	GI50 [15]	GI50 [16]	GI50 [17]	GI50 [18]	GI50 [19]
CC(C)[C@@H]1C=C(c2ccccc2)c2ccccc2C1C(C#N)(C#N)C(C)C (stereo not given in full)	> 100 µM (inactive)	> 100 µM (inactive)	90.4 µM (inactive)	> 100 µM (inactive)	38.2 µM (inactive)	> 100 µM (inactive)	> 100 µM (inactive)	48.6 µM (inactive)	> 100 µM (inactive)	19 µM (inactive)	> 100 µM (inactive)	> 100 µM (inactive)	> 100 µM (inactive)	> 100 µM (inactive)	> 100 µM (inactive)	54.5 µM (inactive)	–	–	–
NCCCCN(CCCN)C(=O)c1ccccc1	> 100 µM (inactive)	> 100 µM (inactive)	> 100 µM (inactive)	> 100 µM (inactive)	> 100 µM (inactive)	> 100 µM (inactive)	–	> 100 µM (inactive)	> 100 µM (inactive)	> 100 µM (inactive)	> 100 µM (inactive)	> 100 µM (inactive)	> 100 µM (inactive)	> 100 µM (inactive)	> 100 µM (inactive)	> 100 µM (inactive)	> 100 µM (inactive)	> 100 µM (inactive)	> 100 µM (inactive)
N#CC1(C#N)C2C=CC(C3CC=CC32)C1(C#N)C#N (stereo not given)	9.84 µM (inactive)	1.27 µM (inactive)	> 50 µM (inactive)	12.9 µM (inactive)	2.4 µM (inactive)	> 10 µM (inactive)	8.59 µM (inactive)	1.48 µM (inactive)	4.72 µM (inactive)	2.35 µM (inactive)	5.16 µM (inactive)	11.2 µM (inactive)	45 µM (inactive)	10.4 µM (inactive)	> 10 µM (inactive)	12.7 µM (inactive)	9.79 µM (inactive)	12.9 µM (inactive)	8.59 µM (inactive)
CCOC(=O)Cc1[nH]c(C(=O)c2ccccc2)cc1C(=O)c1ccccc1	36.8 µM (inactive)	> 10 µM (inactive)	50.4 µM (inactive)	23.8 µM (inactive)	> 10 µM (inactive)	48.9 µM (inactive)	22.2 µM (inactive)	14.8 µM (inactive)	> 10 µM (inactive)	> 10 µM (inactive)	24.3 µM (inactive)	56.4 µM (inactive)	> 100 µM (inactive)	> 100 µM (inactive)	59.8 µM (inactive)	> 10 µM (inactive)	> 10 µM (inactive)	> 100 µM (inactive)	> 10 µM (inactive)
COc1c(C2=NC(C(C)C)CO2)ccc2ccccc12 (stereo not given)	27.3 µM (inactive)	15.3 µM (inactive)	23.7 µM (inactive)	47.8 µM (inactive)	15.1 µM (inactive)	28.1 µM (inactive)	21.5 µM (inactive)	14.2 µM (inactive)	41.5 µM (inactive)	22.6 µM (inactive)	16.4 µM (inactive)	29.6 µM (inactive)	> 100 µM (inactive)	64.3 µM (inactive)	27.6 µM (inactive)	34.2 µM (inactive)	–	–	–
Cc1nc2ccccc2c(=O)n1/N=C(\N=N\c1cc(Cl)ccc1Cl)c1cccc(-c2ccco2)c1	> 100 µM (inactive)	> 10 µM (inactive)	> 100 µM (inactive)	> 100 µM (inactive)	> 10 µM (inactive)	82.6 µM (inactive)	> 100 µM (inactive)	35.3 µM (inactive)	95.9 µM (inactive)	42.8 µM (inactive)	67.8 µM (inactive)	92 µM (inactive)	> 100 µM (inactive)	88.3 µM (inactive)	> 100 µM (inactive)	> 100 µM (inactive)	–	–	–
C=C1C(=O)C23C(O)C1CC[C@H]2C12CCCC(C)(COC(C)=O)[C@H]1[C@H](O)[C@]3(O)OC2 (stereo not given in full)	2.32 µM (inactive)	0.211 µM (active)	1.85 µM (inactive)	3.09 µM (inactive)	0.128 µM (active)	2.37 µM (inactive)	1.52 µM (inactive)	0.138 µM (active)	1.7 µM (inactive)	0.318 µM (active)	0.407 µM (active)	3.19 µM (inactive)	4.63 µM (inactive)	1.71 µM (inactive)	1.53 µM (inactive)	1.14 µM (inactive)	–	–	1.88 µM (inactive)
COc1ccc2oc(=N)c(C(=O)Nc3ccccn3)cc2c1	> 100 µM (inactive)	> 100 µM (inactive)	> 100 µM (inactive)	> 100 µM (inactive)	> 100 µM (inactive)	> 100 µM (inactive)	> 100 µM (inactive)	> 100 µM (inactive)	> 100 µM (inactive)	> 100 µM (inactive)	> 100 µM (inactive)	> 100 µM (inactive)	> 100 µM (inactive)	> 100 µM (inactive)	> 100 µM (inactive)	> 100 µM (inactive)	> 100 µM (inactive)	> 100 µM (inactive)	> 100 µM (inactive)
